According to patent US4663329A, “Thienopyridinone derivatives and anti-bacterial compositions containing them” (Sanofi, priority 1984, dated 1987):
Values after ≈ are worked out from the molar mass of the structure shown. Like-named read-outs stand apart in the source and are kept apart here.

Key:
Format in all cases: cell-based
[1] = tested on: Salmonella typhi ATCC 6539; assay: In vitro antibacterial activity, MIC, Salmonella typhi ATCC 6539; details: Salmonella enterica
Method: (§1) Tests carried out in vitro in accordance with the experimental procedure described hereunder have provided evidence of the antibacterial activity in question.
(§2) For this purpose, the M.I.C. were determined i.e. the minimal inhibiting concentrations of the compound under study acting on the growth of the bacteria at 37° C.
(§3) The serial dilutions method was used utilizing a MUELLER HINTON gelose medium at pH=7.4 and a bacterial inoculum of 10^4 units forming colonies. This inoculum was applied to the gelose by means of a multiple sowing device.
(§4) A scale of concentrations ranging from 100 to 0.05 μg/ml of compound to be studied was used starting from mother solutions titrating 1000 μg/ml, all the subsequent dilutions being effected in distilled water.

[2] = tested on: Serratia liquefaciens 376; assay: In vitro antibacterial activity, MIC, Serratia liquefaciens 376; details: 37° C., pH=7.4, inoculum 10^4, read-out: MIC
Method: as §1, §2, §3, §4

[3] = tested on: Enterobacter hafniae RO 46; assay: In vitro antibacterial activity, MIC, Enterobacter hafniae RO 46; details: Hafnia alvei, RO46
Method: as §1, §2, §3, §4

Proteus morganii 1510 = assay: In vitro antibacterial activity, MIC, Proteus morganii 1510; details: Morganella morganii
Method: as §1, §2, §3, §4

[4] = tested on: Staphylococcus aureus 53154 IP; assay: In vitro antibacterial activity, MIC, Staphylococcus aureus 53154 IP; details: Staphylococcus aureus 53154 IP; 37° C., pH=7.4, inoculum 10^4; read-out: MIC
Method: as §1, §2, §3, §4

[5] = tested on: Escherichia coli SOL RL 90; assay: In vitro antibacterial activity, MIC, Escherichia coli SOL RL 90; details: SOLRL90
Method: as §1, §2, §3, §4

[6] = tested on: Pseudomonas aeruginosa 8203; assay: In vitro antibacterial activity, MIC, Pseudomonas aeruginosa 8203; details: 37° C., pH=7.4, inoculum 10^4, read-out: MIC
Method: as §1, §2, §3, §4

[7] = tested on: Citrobacter freundii GN 346; assay: In vitro antibacterial activity, MIC, Citrobacter freundii GN 346; details: GN346
Method: as §1, §2, §3, §4

Shigella sonnei R 018 = assay: In vitro antibacterial activity, MIC, Shigella sonnei R 018; details: R018, 37° C., pH=7.4, inoculum 10^4
Method: as §1, §2, §3, §4

[8] = tested on: Providencia stuartii 5158; assay: In vitro antibacterial activity, MIC, Providencia stuartii 5158
Method: as §1, §2, §3, §4

[9] = tested on: Klebsiella pneumoniae R 30; assay: In vitro antibacterial activity, MIC, Klebsiella pneumoniae R 30; details: R30
Method: as §1, §2, §3, §4

[10] = tested on: Escherichia coli 54127 IP; assay: In vitro antibacterial activity, MIC, Escherichia coli 54127 IP
Method: as §1, §2, §3, §4

[11] = tested on: Proteus vulgaris RL 99 bis; assay: In vitro antibacterial activity, MIC, Proteus vulgaris RL 99 bis; details: RL99BIS
Method: as §1, §2, §3, §4

[12] = tested on: Klebsiella pneumoniae ATCC 10031; assay: In vitro antibacterial activity, MIC, Klebsiella pneumoniae ATCC 10031; details: ATCC10031
Method: as §1, §2, §3, §4

[13] = tested on: Enterobacter cloacae P 99; assay: In vitro antibacterial activity, MIC, Enterobacter cloacae P 99; details: Enterobacter cloacae, P99
Method: as §1, §2, §3, §4

[14] = tested on: Acinetobacter calcoaceticus C 1733; assay: In vitro antibacterial activity, MIC, Acinetobacter calcoaceticus C 1733; details: C1733, 37° C., pH=7.4, inoculum 10^4, read-out: MIC
Method: as §1, §2, §3, §4

[15] = tested on: Bordetella bronchiseptica ATCC 4617; assay: In vitro antibacterial activity, MIC, Bordetella bronchiseptica ATCC 4617; details: ATCC4617, 37° C., pH=7.4, inoculum 10^4, read-out: MIC
Method: as §1, §2, §3, §4

[16] = tested on: Streptococcus faecalis 5855 IP; assay: In vitro antibacterial activity, MIC, Streptococcus faecalis 5855 IP; details: Enterococcus faecalis, 37° C., pH=7.4, inoculum 10^4, read-out: MIC
Method: as §1, §2, §3, §4

[17] = tested on: Proteus mirabilis ATCC 21100; assay: In vitro antibacterial activity, MIC, Proteus mirabilis ATCC 21100; details: ATCC21100
Method: as §1, §2, §3, §4

[18] = tested on: Salmonella typhimurium A 222 IP; assay: In vitro antibacterial activity, MIC, Salmonella typhimurium A 222 IP; details: Salmonella enterica
Method: as §1, §2, §3, §4

[19] = Escherichia coli SOL RL 90, 37° C., pH=7.4, inoculum 10^4, read-out: MIC
[20] = Citrobacter freundii GN 346, 37° C., pH=7.4, inoculum 10^4, read-out: MIC
[21] = Providencia stuartii 5158, 37° C., pH=7.4, inoculum 10^4, read-out: MIC
[22] = Klebsiella pneumoniae R 30, 37° C., pH=7.4, inoculum 10^4, read-out: MIC
[23] = Klebsiella pneumoniae ATCC 10031, 37° C., pH=7.4, inoculum 10^4, read-out: MIC
[24] = Proteus mirabilis ATCC 21100, 37° C., pH=7.4, inoculum 10^4, read-out: MIC
[25] = Salmonella typhimurium A 222 IP, 37° C., pH=7.4, inoculum 10^4, read-out: MIC

Row | SMILES | MIC [1] | MIC [2] | MIC [3] | MIC (Proteus morganii 1510; 1510) | MIC [4] | MIC [6] | MIC (Shigella sonnei R 018) | MIC ([10]; Escherichia coli, 54127IP) | MIC ([11]; Proteus vulgaris) | MIC [13] | MIC [14] | MIC [15] | MIC [16] | MIC [5, 19] | MIC [7, 20] | MIC [8, 21] | MIC [9, 22] | MIC [12, 23] | MIC [17, 24] | MIC [18, 25] | also measured
1 | CCn1cc(C(=O)O)c(=O)c2cc(C=NO)sc21 [Compound A, 4,7-Dihydro-7-ethyl-2-hydroxyiminomethyl-4-oxo-thieno[2,3-b]pyridine-5-carboxylic acid] | 6.25 µg/mL (≈ 23.5 µM) | 100 µg/mL (≈ 376 µM) | 1.56 µg/mL (≈ 5.86 µM) | 1.56 µg/mL (≈ 5.86 µM) | 25 µg/mL (≈ 93.9 µM) | 50 µg/mL (≈ 188 µM) | 1.56 µg/mL (≈ 5.86 µM) | 3.12 µg/mL (≈ 11.7 µM) | 1.56 µg/mL (≈ 5.86 µM) | 6.25 µg/mL (≈ 23.5 µM) | > 100 µg/mL | > 100 µg/mL | > 100 µg/mL |  |  |  |  |  |  |  | MIC ([5]; Escherichia coli): 6.25 µg/mL (≈ 23.5 µM); MIC ([7]; Citrobacter freundii): 6.25 µg/mL (≈ 23.5 µM); MIC ([8]; Providencia stuartii, 5158): 6.25 µg/mL (≈ 23.5 µM); MIC ([9]; Klebsiella pneumoniae): 6.25 µg/mL (≈ 23.5 µM); MIC ([12]; Klebsiella pneumoniae): 1.56 µg/mL (≈ 5.86 µM); MIC ([17]; Proteus mirabilis): 1.56 µg/mL (≈ 5.86 µM); MIC ([18]; TYPHIMURIUM): 6.25 µg/mL (≈ 23.5 µM)
2 | CCn1cc(C(=O)O)c(=O)c2cc(C(=O)O)sc21 [Compound X, 4,7-dihydro-7-ethyl-2-carboxy-4-oxo-thieno[2,3-b]pyridine-5-carboxylic acid, reference compound] | > 100 µg/mL | > 100 µg/mL |  |  | > 100 µg/mL | > 100 µg/mL | > 100 µg/mL |  |  | > 100 µg/mL | > 100 µg/mL | > 100 µg/mL | > 100 µg/mL | > 100 µg/mL | > 100 µg/mL | > 100 µg/mL | > 100 µg/mL | > 100 µg/mL | > 100 µg/mL | > 100 µg/mL | MIC ([3]; Enterobacter hafniae RO 46, 37° C., pH=7.4, inoculum 10^4, read-out: MIC): > 100 µg/mL; MIC (Proteus morganii 1510; Proteus morganii 1510, 37° C., pH=7.4, inoculum 10^4, read-out: MIC): > 100 µg/mL; MIC ([10]; Escherichia coli 54127 IP, 37° C., pH=7.4, inoculum 10^4, read-out: MIC): > 100 µg/mL; MIC ([11]; Proteus vulgaris RL 99 bis, 37° C., pH=7.4, inoculum 10^4, read-out: MIC): > 100 µg/mL
3 | CCn1cc(C(=O)O)c(=O)c2cc(C=Nc3ccccc3)sc21 [Compound J, 4,7-Dihydro-7-ethyl-2-N-phenyl-iminomethyl-4-oxo-thieno[2,3-b]pyridine-5-carboxylic acid] | 25 µg/mL (≈ 76.6 µM) | > 100 µg/mL | 3.12 µg/mL (≈ 9.56 µM) | 3.12 µg/mL (≈ 9.56 µM) | > 100 µg/mL | > 100 µg/mL | 3.12 µg/mL (≈ 9.56 µM) | 3.12 µg/mL (≈ 9.56 µM) | 3.12 µg/mL (≈ 9.56 µM) | 50 µg/mL (≈ 153 µM) | > 100 µg/mL | > 100 µg/mL | > 100 µg/mL | 6.25 µg/mL (≈ 19.1 µM) | 12.5 µg/mL (≈ 38.3 µM) | 12.5 µg/mL (≈ 38.3 µM) | 25 µg/mL (≈ 76.6 µM) | 50 µg/mL (≈ 153 µM) | 12.5 µg/mL (≈ 38.3 µM) | 6.25 µg/mL (≈ 19.1 µM) | 
4 | CCn1cc(C(=O)O)c(=O)c2cc([N+](=O)[O-])sc21 [Compound Y, 4,7-dihydro-7-ethyl-2-nitro-4-oxo-thieno[2,3-b]pyridine-5-carboxylic acid, reference compound] | 25 µg/mL (≈ 93.2 µM) | > 100 µg/mL | 3.12 µg/mL (≈ 11.6 µM) | 3.12 µg/mL (≈ 11.6 µM) | > 100 µg/mL | > 100 µg/mL | 3.12 µg/mL (≈ 11.6 µM) | 3.12 µg/mL (≈ 11.6 µM) | 3.12 µg/mL (≈ 11.6 µM) | 50 µg/mL (≈ 186 µM) | > 100 µg/mL | > 100 µg/mL | > 100 µg/mL | 6.25 µg/mL (≈ 23.3 µM) | 12.5 µg/mL (≈ 46.6 µM) | 12.5 µg/mL (≈ 46.6 µM) | 25 µg/mL (≈ 93.2 µM) | 50 µg/mL (≈ 186 µM) | 12.5 µg/mL (≈ 46.6 µM) | 6.25 µg/mL (≈ 23.3 µM) | 
